Test results taken from ChEMBL document CHEMBL1201862, “PubChem BioAssay data set” (2004).
Active and inactive are the calls of the source.

How the values were obtained:
Kallikrein-7 = Kallikrein-7 (Homo sapiens, UniProt P49862); test: Fluorescence Intensity-based biochemical primary high throughput dose response assay to identify activators of kallikrein-7 (K7) zymogen.
Cryptococcus neoformans = test: PubChem AID 686997; format: functional, organism-based
Protein skinhead-1 = target: T1, Protein skinhead-1 (Caenorhabditis elegans, UniProt P34707); format: functional
T1 sequence (P34707 whole entry): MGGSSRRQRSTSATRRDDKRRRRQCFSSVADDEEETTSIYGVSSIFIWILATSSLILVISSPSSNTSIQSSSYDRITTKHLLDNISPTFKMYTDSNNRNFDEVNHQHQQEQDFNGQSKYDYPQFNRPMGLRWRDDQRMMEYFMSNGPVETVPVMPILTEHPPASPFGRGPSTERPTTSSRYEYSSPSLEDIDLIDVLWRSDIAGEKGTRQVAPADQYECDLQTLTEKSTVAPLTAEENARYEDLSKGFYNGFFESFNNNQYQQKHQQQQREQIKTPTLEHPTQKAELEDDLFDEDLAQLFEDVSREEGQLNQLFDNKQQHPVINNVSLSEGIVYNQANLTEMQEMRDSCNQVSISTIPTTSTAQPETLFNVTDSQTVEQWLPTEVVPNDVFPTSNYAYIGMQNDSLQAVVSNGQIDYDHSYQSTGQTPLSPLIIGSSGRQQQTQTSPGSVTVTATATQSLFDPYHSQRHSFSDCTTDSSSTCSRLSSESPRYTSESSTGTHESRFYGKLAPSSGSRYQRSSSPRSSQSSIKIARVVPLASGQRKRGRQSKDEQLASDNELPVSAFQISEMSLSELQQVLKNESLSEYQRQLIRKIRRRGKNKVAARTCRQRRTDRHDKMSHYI

[1] = ADAM10 protease inhibitors, dose response, selectivity assay for ADAM17 exosite inhibitor project, biochemical, FRET peptide substrate, recombinant human ADAM10 (AID 743259);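 further: ADAM10 enzyme cleaving a FRET peptide substrate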
[2] = target: Disintegrin and metalloproteinase domain-containing protein 17 (Homo sapiens, UniProt P78536); test: exosite inhibitors of ADAM17, dose response, biochemical (AID 743260)
[3] = A2780 ovarian cancer cell cytotoxicity, dose response, cytotoxicity control, plate reader, dry powder samples (AID 743046); format: functional, cell-based
Paired box protein Pax-8 = Paired box protein Pax-8 (Homo sapiens, UniProt Q06710); test: inhibitors of PAX8-driven TPO luciferase reporter, dose response, RMG-I cells, cherry-pick (AID 687027); format: functional, cell-based;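 further: luciferase reporter driven by Pax8 target thyroperoxidase promoter measured by SteadyGlo luminescence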
[4] = cytotoxicity in OVCAR8 ovarian cancer cells, dose response, PAX8 project, cell-based, plate reader, dry powder samples (AID 743197); format: functional; conditions: OVCAR-8
[5] = NIH:OVCAR-3 ovarian cancer cell cytotoxicity, dose response, PAX8 inhibitor project, plate reader, dry powder samples (AID 743044); format: functional, cell-based
[6] = CEM21 cell cytotoxicity, dose response, cytotoxicity control, plate reader, dry powder (AID 687026); format: functional, cell-based
Large T antigen = Large T antigen (Simian virus 40, UniProt P03070); format: functional, Betapolyomavirus macacae;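 further: Confirmatory-stage PubChem screen for compounds that inhibit SV40 T antigen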
Protein Tat = Protein Tat (Human immunodeficiency virus type 1 group M subtype B (isolate HXB2)(HIV-1), UniProt P04608); format: functional;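 further: tat binding to TAR RNA read out by fluorescence polarization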
[7] = Counterscreen for activators of the function of SWI/SNF related, matrix associated, actin dependent regulator of chromatin, subfamily a, member 2 (SMARCA2, BRM): Luminescence-based cell-based high throughput dose response assay to identify non-selective compounds using the VP16 reporter assay.; format: functional
[8] = target: SWI/SNF-related matrix-associated actin-dependent regulator of chromatin subfamily A member 2 (Homo sapiens, UniProt P51531); test: Luminescence-based cell-based high throughput dose response assay to identify activators of the function of SWI/SNF related, matrix associated, actin dependent regulator of chromatin, subfamily a, member 2 (SMARCA2, BRM).; format: functional
[9] = cytotoxicity toward HCT116 cells – cell-based, CellTiter-Glo luminescence, IC50, dose response (AID 1117332); format: functional; conditions: HCT-116
Cytochrome P450 3A4 = Cytochrome P450 3A4 (Homo sapiens, UniProt P08684);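 further: CYP3A4 tested as one member of a cytochrome P450 panel screen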
[10] = RKO cell viability reduction, dose response, CellTiter-Glo luminescence (AID 1117322); format: functional
[11] = cytotoxicity toward HT-29 cells – cell-based, CellTiter-Glo luminescence, IC50, dose response (AID 1117330); format: functional
[12] = CellTiter-Glo luminescent dose response of DLD-1 viability loss (AID 1117352); format: functional
[13] = Concentration-dependent survival of SW480 colon cancer line, luminescence detection with CellTiter-Glo, half-maximal inhibitory concentration (AID 1117338); format: functional
[14] = cytotoxicity toward Colo320 cells – cell-based, CellTiter-Glo luminescence, IC50, dose response (AID 1117334); format: functional; conditions: COLO 320
[15] = SNU-C1 cell viability reduction, dose response, CellTiter-Glo luminescence (AID 1117323); format: functional, cell-based
[16] = inhibitors of Vif binding to APOBEC3G peptide, primary screen, biochemical, TR-FRET, GST-Vif 1-94, biotin-A3G peptide, dose response retest (AID 1117319); format: functional;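 further: TR-FRET signal of purified GST-Vif binding a biotinylated A3G peptide; inhibitors lower the FRET signal by blocking Vif and A3G binding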
[17] = target: T2, Calpain-2 catalytic subunit (Sus scrofa, UniProt P43367); test: pig calpain II inhibitor potency, dose response, biochemical, fluorogenic peptide substrate (AID 1420); format: functional
T2 sequence (P43367 whole entry): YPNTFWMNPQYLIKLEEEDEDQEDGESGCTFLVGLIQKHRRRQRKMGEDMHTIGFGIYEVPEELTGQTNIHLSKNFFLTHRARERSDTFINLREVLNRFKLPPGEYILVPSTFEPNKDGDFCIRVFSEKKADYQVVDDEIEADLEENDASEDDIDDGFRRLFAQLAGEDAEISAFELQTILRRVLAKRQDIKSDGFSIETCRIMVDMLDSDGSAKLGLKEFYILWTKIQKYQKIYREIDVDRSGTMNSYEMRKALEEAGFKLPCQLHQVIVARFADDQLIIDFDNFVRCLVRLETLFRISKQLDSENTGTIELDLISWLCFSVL

[18] = P. falciparum late gametocyte killing, dose response, luminescence (AID 1117278); format: functional, cell-based;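 further: gametocytes exposed to compound for 24 hours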
[19] = Jurkat T cell cytotoxicity, dose response, cytotoxicity control for P. falciparum gametocyte viability project, luminescence (AID 1117277); format: functional, cell-based;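 further: potency reflects loss of cellular ATP meaning fewer viable cells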

Chain of Kallikrein-7 (P49862 whole entry): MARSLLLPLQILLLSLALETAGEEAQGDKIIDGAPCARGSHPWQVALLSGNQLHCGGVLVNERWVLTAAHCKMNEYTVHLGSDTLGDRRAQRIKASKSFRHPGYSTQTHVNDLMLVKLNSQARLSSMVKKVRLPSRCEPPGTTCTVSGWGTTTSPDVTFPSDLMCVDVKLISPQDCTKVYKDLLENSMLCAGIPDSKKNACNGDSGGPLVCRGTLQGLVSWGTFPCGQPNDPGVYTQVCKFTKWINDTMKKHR
Chain of SWI/SNF-related matrix-associated actin-dependent regulator of chromatin subfamily A member 2 (P51531 whole entry): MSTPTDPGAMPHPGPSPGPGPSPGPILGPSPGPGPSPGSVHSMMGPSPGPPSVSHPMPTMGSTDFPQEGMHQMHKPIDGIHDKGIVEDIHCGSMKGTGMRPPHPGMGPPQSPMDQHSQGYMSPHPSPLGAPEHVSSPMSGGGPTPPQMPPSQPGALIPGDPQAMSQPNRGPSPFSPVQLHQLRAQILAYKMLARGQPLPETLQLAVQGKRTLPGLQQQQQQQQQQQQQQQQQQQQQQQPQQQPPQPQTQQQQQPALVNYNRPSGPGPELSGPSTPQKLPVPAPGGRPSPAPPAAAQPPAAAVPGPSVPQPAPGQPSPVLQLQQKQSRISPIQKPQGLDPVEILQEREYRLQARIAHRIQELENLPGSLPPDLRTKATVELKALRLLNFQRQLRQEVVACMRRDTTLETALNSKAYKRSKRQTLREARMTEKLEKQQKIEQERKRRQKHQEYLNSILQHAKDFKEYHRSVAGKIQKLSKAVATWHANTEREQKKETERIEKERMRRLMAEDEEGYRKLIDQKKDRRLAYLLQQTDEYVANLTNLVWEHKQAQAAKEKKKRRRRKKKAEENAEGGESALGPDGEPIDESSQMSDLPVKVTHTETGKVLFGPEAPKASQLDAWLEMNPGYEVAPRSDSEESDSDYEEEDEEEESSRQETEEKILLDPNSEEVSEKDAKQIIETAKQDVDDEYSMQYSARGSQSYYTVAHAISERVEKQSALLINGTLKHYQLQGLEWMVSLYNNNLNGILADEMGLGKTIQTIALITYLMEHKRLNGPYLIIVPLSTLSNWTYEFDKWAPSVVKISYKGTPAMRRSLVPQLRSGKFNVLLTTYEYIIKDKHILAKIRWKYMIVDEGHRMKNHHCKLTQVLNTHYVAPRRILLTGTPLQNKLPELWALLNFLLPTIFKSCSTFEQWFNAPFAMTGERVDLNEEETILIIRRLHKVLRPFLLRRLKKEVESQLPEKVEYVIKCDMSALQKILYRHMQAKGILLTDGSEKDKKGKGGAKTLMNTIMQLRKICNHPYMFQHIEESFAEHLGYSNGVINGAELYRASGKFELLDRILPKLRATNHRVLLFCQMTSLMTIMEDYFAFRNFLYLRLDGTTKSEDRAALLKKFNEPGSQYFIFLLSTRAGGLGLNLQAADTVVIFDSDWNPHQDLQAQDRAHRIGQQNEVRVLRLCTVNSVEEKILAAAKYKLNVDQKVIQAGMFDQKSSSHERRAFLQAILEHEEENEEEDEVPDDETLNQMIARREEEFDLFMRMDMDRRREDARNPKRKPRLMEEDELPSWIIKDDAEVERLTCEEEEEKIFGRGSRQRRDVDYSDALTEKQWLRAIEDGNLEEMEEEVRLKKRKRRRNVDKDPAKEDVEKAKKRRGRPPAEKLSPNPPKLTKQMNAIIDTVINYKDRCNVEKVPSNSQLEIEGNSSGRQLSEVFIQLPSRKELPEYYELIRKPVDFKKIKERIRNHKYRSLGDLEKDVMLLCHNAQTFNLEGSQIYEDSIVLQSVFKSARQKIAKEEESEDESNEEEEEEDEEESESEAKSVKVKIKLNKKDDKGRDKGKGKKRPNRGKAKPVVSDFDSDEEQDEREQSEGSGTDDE
Chain of Protein Tat (P04608 whole entry): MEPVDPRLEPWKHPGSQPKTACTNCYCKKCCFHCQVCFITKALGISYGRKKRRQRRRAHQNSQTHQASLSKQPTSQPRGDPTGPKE
Chain of Paired box protein Pax-8 (Q06710 whole entry): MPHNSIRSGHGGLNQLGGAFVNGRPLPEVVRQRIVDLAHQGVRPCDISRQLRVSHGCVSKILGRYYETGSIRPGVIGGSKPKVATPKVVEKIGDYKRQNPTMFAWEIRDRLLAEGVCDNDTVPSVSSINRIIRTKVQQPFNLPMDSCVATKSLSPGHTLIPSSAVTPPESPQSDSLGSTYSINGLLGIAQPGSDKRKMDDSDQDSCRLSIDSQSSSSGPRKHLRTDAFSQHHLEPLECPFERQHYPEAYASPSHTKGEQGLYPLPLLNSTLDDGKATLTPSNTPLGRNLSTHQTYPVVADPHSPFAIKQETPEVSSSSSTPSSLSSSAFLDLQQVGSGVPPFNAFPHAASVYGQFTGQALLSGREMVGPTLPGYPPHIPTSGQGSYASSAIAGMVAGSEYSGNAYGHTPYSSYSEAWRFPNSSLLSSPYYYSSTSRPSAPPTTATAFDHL
Chain of Large T antigen (P03070 whole entry): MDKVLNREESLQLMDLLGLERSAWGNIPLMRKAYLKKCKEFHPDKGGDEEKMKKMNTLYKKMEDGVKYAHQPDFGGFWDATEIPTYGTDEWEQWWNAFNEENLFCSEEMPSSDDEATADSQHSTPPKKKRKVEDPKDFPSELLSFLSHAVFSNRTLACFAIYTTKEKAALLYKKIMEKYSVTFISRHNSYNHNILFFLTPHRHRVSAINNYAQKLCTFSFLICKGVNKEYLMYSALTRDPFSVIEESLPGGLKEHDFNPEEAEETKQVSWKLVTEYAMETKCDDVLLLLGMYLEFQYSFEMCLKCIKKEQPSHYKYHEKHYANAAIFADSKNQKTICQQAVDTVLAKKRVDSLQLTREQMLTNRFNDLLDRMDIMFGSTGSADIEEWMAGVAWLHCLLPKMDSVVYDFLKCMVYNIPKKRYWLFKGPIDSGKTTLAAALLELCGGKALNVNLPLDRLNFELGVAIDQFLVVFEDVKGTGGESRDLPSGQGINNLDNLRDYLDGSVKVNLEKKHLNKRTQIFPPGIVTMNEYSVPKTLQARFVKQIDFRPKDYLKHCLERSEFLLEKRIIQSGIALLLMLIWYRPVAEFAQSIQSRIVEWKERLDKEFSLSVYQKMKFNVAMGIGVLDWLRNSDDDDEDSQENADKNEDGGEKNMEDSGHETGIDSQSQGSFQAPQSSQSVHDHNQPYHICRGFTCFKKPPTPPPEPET
Chain of Disintegrin and metalloproteinase domain-containing protein 17 (P78536 whole entry, the tested form may be a part): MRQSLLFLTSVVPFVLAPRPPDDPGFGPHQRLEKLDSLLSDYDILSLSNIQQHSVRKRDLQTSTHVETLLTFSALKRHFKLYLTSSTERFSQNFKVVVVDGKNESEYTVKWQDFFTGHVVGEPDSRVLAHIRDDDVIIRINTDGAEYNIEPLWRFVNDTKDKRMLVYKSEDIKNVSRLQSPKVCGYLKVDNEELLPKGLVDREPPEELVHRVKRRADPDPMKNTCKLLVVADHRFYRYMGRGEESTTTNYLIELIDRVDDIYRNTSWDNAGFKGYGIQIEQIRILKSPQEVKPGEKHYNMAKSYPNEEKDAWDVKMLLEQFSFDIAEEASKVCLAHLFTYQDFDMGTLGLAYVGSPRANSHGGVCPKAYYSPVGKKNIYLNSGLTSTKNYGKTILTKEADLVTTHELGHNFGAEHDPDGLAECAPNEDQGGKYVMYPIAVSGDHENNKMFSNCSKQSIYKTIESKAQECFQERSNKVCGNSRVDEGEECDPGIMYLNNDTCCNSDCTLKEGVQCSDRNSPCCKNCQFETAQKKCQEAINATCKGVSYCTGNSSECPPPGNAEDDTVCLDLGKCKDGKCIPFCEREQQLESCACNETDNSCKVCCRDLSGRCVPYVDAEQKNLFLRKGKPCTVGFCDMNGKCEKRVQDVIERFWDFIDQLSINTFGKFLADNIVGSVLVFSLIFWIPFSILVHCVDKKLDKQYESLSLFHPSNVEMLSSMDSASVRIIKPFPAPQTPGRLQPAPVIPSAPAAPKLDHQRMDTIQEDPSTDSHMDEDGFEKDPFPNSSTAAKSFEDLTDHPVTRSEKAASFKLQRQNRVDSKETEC
Chain of Cytochrome P450 3A4 (P08684 whole entry): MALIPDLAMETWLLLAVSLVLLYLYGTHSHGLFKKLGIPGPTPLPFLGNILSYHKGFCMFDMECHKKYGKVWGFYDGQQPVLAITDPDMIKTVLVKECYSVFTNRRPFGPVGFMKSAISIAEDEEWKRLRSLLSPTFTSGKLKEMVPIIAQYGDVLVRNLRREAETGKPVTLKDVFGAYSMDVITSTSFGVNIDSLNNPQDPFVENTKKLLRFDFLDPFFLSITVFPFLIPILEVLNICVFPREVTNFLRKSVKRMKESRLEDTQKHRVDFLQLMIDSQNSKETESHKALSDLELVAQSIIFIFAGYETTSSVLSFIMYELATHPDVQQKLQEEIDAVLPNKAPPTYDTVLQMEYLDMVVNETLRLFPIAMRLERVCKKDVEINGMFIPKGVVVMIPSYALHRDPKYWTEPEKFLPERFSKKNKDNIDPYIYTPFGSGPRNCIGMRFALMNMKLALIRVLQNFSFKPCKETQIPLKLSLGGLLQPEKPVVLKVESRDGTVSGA

**Q.** Which EC50 (Kallikrein-7) does the source give for `O=C(c1cc(-c2cccs2)nc2ccccc12)N1CCN(CCO)CC1` here?
**A.** Its EC50 is > 69.5 µM (inactive).

**Q.** Which AC50 (Cryptococcus neoformans) does the source give for `COC(=O)C1=C(C)N(Cc2ccccc2)C(=S)NC1c1ccc(Cl)cc1` (configuration not stated) here?
**A.** Its AC50 is 28.7 µM (active).

**Q.** For `O=c1c(-c2ccc(Br)cc2)coc2c(CN3CCOCC3)c(O)ccc12`, which IC50 (Protein skinhead-1) is on record?
**A.** The IC50 was > 100 µM (inactive).

**Q.** What about the EC50 (Kallikrein-7) of the same compound?
**A.** Its EC50 is 66.1 µM (inactive).

**Q.** Which results are given for `CC(C)(C)c1ccc(-c2nc(NCc3cccnc3)c3ccccc3n2)cc1`?
**A.** IC50 [1]: > 7.72 µM (active); IC50 [2]: > 69.5 µM (inactive)

**Q.** Which results are given for `C[C@@H]1CN([C@H](C)CO)C(=O)c2cc(NS(=O)(=O)c3ccc(F)cc3)ccc2O[C@@H](C)CCCCO[C@H]1CN(C)S(=O)(=O)c1ccc(Cl)cc1`?
**A.** AC50 [3]: 2.97 µM (active); AC50 (Paired box protein Pax-8): 6.83 µM (active); AC50 [4]: > 70 µM (inactive); AC50 [5]: 32 µM (active)

**Q.** Which AC50 [6] does the source give for `Cc1ccc(-c2nnc3ccc4c(C(F)(F)F)cc(C(F)(F)F)nc4n23)cc1` here?
**A.** Its AC50 is > 70 µM (inactive).

**Q.** Which IC50 (Large T antigen) does the source give for `CC1OC(OCC2OC(Oc3c(-c4ccc(O)cc4)oc4cc(O)cc(O)c4c3=O)C(O)C(O)C2O)C(O)C(O)C1O` (configuration not stated) here?
**A.** The IC50 was 17.3 µM (active).

**Q.** What about the IC50 (Protein Tat) of the same compound?
**A.** Its IC50 is > 100 µM (active).

**Q.** What does the source list for `C=C1C(=O)OC2C1CCC(C)C1(O)C=CC(=O)C21C` (configuration not stated)?
**A.** EC50 [7]: > 91.2 µM (inactive); EC50 [8]: > 91.2 µM (inactive)

**Q.** Which IC50 [9] does the source give for `Cc1ccc(Cl)c(Nc2ccccc2C(=O)[O-])c1Cl.O.[Na+]` [MECLOFENAMATE SODIUM] here?
**A.** Its IC50 is > 20 µM (inactive).

**Q.** And the AC50 (Cytochrome P450 3A4)?
**A.** Its AC50 is “inconclusive”.

**Q.** And the IC50 [10]?
**A.** The IC50 was > 20 µM (inactive).

**Q.** And the IC50 [11]?
**A.** The IC50 was > 20 µM (inactive).

**Q.** And the IC50 [12]?
**A.** The IC50 was 15.1 µM (inactive).

**Q.** And the IC50 [13]?
**A.** Its IC50 is > 20 µM (inactive).

**Q.** And the IC50 [14]?
**A.** The IC50 was > 20 µM (inactive).

**Q.** What about the IC50 [15] of the same compound?
**A.** Its IC50 is > 20 µM (inactive).

**Q.** Which IC50 [16] does the source give for `O=C(CNC(=O)c1cccs1)OCC(=O)c1ccc2ccccc2c1` here?
**A.** Its IC50 is > 100 µM (active).

**Q.** Which IC50 [17] does the source give for `CC(C(=O)Nc1ccccc1Oc1ccccc1)c1ccccc1` (configuration not stated) here?
**A.** The IC50 was 19.8 µM (not active).

**Q.** And the IC50 [18]?
**A.** Its IC50 is > 109 µM (inactive).

**Q.** And the IC50 [19]?
**A.** Its IC50 is > 83.2 µM (inactive).
